According to ChEMBL document CHEMBL5678818, “Discovery of potent SOS1 inhibitors that block RAS activation via disruption of the RAS-SOS1 interaction” (Proc Natl Acad Sci U S A, 2019):

Assays:
[1] = molecular target: AP2-associated protein kinase 1 (Homo sapiens) (UniProt Q2M2I8); assay: Inhibition of AAK1 (unknown origin) assessed as residual activity at 1000 nM by KINOMEscan analysis relative to control
[2] = molecular target: T1, Aurora kinase A (Homo sapiens) (UniProt O14965); assay: Inhibition of AURKA (unknown origin) assessed as residual activity at 1000 nM by KINOMEscan analysis relative to control
T1 sequence (whole entry): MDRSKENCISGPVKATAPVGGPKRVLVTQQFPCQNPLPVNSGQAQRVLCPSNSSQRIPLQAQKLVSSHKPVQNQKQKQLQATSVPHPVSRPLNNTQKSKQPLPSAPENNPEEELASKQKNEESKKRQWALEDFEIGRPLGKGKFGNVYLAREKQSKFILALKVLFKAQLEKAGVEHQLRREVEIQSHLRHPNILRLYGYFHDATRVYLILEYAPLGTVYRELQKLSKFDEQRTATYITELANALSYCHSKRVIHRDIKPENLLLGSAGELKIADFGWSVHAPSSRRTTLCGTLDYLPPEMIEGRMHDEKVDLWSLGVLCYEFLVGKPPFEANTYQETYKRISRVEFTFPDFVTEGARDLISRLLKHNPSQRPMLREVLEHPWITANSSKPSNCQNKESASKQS

[3] = molecular target: T2, Megakaryocyte-associated tyrosine-protein kinase (Homo sapiens) (UniProt P42679); assay: Inhibition of CTK (unknown origin) assessed as residual activity at 1000 nM by KINOMEscan analysis relative to control
T2 sequence (whole entry): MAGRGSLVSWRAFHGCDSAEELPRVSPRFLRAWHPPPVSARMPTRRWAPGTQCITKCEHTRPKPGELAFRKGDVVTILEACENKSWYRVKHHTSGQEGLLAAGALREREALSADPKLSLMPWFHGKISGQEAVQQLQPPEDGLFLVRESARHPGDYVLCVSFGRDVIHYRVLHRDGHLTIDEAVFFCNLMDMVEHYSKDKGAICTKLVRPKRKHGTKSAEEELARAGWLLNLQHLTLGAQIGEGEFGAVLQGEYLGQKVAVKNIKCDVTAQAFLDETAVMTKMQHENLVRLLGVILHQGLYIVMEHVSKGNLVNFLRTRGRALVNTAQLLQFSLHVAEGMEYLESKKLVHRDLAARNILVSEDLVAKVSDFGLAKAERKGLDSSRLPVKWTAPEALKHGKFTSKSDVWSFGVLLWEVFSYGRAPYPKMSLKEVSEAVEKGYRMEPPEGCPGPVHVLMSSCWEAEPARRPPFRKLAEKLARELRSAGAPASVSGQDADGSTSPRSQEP

[4] = molecular target: Ephrin type-A receptor 7 (Homo sapiens) (UniProt Q15375); assay: Inhibition of EPHA7 (unknown origin) assessed as residual activity at 1000 nM by KINOMEscan analysis relative to control
[5] = system: Receptor-type tyrosine-protein kinase FLT3 (Homo sapiens), P36888 [R834Q]; assay: Inhibition of FLT3 R834Q mutant (unknown origin) assessed as residual activity at 1000 nM by KINOMEscan analysis relative to control
[6] = system: Mast/stem cell growth factor receptor Kit (Homo sapiens), P10721 [V559D,V654A]; assay: Inhibition of KIT V559D/V654A mutant (unknown origin) assessed as residual activity at 1000 nM by KINOMEscan analysis relative to control
[7] = molecular target: Mast/stem cell growth factor receptor Kit (Homo sapiens) (UniProt P10721); assay: Inhibition of autoinhibited KIT (unknown origin) assessed as residual activity at 1000 nM by KINOMEscan analysis relative to control
[8] = molecular target: Serine/threonine-protein kinase MRCK alpha (Homo sapiens) (UniProt Q5VT25); assay: Inhibition of MRCKA (unknown origin) assessed as residual activity at 1000 nM by KINOMEscan analysis relative to control
[9] = system: Phosphatidylinositol 4,5-bisphosphate 3-kinase catalytic subunit alpha isoform (Homo sapiens), P42336 [E545K]; assay: Inhibition of PIK3CA E545K mutant (unknown origin) assessed as residual activity at 1000 nM by KINOMEscan analysis relative to control
[10] = molecular target: T3, Mitogen-activated protein kinase kinase kinase 7 (Homo sapiens) (UniProt O43318); assay: Inhibition of TAK1 (unknown origin) assessed as residual activity at 1000 nM by KINOMEscan analysis relative to control
T3 sequence (whole entry): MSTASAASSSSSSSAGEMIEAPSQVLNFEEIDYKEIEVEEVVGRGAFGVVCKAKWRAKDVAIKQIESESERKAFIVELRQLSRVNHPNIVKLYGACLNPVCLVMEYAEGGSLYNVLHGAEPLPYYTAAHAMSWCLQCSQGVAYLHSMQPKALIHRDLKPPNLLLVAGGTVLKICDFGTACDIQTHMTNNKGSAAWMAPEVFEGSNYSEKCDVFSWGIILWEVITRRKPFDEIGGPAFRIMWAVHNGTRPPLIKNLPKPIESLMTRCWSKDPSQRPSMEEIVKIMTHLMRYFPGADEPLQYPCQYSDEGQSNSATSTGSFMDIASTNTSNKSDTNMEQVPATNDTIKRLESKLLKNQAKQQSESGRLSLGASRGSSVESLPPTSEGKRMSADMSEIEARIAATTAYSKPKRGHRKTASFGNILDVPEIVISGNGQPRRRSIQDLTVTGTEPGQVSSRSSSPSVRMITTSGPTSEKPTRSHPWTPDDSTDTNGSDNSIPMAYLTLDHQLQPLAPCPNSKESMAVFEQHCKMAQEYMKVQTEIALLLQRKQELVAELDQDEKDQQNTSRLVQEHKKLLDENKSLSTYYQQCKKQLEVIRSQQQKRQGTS

Sequence of Ephrin type-A receptor 7 (Homo sapiens) (Q15375 28-998 limits assumed): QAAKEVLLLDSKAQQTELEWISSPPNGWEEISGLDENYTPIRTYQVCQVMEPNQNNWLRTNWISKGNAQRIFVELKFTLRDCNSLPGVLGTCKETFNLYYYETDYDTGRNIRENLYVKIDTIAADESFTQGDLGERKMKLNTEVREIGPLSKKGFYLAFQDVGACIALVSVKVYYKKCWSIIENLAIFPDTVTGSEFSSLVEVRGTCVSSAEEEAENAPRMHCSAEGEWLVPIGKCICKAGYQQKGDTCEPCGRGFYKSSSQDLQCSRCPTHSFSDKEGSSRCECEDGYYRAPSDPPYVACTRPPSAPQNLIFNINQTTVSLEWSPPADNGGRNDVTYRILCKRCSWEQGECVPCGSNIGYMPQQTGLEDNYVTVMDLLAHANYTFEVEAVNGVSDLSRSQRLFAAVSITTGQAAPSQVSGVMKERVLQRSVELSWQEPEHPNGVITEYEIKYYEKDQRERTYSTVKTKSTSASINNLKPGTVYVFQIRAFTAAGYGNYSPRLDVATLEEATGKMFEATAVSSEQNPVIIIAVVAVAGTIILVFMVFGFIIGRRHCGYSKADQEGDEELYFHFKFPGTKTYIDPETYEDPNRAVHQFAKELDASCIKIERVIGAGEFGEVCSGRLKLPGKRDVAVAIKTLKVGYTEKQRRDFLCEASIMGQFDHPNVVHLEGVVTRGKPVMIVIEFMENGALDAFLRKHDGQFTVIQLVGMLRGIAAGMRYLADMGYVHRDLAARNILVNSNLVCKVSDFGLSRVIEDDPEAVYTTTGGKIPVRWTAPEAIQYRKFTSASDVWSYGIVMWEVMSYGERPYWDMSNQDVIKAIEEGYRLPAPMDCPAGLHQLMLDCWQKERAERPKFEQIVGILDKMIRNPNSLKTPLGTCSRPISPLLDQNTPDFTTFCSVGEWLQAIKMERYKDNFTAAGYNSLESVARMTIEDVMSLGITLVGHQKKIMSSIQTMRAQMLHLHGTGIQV
Sequence of Phosphatidylinositol 4,5-bisphosphate 3-kinase catalytic subunit alpha isoform (Homo sapiens), P42336 [E545K] (P42336 whole entry E545K, canonical isoform): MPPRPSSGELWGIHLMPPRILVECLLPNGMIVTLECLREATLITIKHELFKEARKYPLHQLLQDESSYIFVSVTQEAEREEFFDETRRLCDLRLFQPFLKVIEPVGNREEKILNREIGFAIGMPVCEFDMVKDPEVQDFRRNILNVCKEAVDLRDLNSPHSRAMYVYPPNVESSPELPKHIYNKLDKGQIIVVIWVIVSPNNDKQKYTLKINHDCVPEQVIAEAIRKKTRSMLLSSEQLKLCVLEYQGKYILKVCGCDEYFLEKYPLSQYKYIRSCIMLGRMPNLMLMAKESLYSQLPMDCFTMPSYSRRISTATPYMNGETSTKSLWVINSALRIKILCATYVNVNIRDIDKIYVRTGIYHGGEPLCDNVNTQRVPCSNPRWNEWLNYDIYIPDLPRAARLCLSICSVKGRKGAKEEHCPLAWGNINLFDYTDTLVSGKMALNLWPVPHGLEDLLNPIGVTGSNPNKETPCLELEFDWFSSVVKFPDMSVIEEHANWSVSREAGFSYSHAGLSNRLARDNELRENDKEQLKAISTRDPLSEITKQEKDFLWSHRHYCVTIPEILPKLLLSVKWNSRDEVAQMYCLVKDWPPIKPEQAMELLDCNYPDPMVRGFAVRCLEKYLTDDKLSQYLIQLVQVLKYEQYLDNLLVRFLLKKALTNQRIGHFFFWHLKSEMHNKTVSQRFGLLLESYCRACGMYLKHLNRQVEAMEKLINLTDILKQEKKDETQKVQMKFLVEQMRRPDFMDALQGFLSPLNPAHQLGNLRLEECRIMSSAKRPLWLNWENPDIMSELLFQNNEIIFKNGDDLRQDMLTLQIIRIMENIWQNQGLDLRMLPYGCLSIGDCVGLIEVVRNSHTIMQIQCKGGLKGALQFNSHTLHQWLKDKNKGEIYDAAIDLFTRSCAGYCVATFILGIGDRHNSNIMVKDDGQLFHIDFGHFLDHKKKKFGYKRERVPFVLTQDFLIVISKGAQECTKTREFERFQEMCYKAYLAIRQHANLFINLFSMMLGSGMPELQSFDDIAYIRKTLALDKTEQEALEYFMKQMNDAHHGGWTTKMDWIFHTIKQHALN
Sequence of Serine/threonine-protein kinase MRCK alpha (Homo sapiens) (Q5VT25 whole entry, canonical isoform): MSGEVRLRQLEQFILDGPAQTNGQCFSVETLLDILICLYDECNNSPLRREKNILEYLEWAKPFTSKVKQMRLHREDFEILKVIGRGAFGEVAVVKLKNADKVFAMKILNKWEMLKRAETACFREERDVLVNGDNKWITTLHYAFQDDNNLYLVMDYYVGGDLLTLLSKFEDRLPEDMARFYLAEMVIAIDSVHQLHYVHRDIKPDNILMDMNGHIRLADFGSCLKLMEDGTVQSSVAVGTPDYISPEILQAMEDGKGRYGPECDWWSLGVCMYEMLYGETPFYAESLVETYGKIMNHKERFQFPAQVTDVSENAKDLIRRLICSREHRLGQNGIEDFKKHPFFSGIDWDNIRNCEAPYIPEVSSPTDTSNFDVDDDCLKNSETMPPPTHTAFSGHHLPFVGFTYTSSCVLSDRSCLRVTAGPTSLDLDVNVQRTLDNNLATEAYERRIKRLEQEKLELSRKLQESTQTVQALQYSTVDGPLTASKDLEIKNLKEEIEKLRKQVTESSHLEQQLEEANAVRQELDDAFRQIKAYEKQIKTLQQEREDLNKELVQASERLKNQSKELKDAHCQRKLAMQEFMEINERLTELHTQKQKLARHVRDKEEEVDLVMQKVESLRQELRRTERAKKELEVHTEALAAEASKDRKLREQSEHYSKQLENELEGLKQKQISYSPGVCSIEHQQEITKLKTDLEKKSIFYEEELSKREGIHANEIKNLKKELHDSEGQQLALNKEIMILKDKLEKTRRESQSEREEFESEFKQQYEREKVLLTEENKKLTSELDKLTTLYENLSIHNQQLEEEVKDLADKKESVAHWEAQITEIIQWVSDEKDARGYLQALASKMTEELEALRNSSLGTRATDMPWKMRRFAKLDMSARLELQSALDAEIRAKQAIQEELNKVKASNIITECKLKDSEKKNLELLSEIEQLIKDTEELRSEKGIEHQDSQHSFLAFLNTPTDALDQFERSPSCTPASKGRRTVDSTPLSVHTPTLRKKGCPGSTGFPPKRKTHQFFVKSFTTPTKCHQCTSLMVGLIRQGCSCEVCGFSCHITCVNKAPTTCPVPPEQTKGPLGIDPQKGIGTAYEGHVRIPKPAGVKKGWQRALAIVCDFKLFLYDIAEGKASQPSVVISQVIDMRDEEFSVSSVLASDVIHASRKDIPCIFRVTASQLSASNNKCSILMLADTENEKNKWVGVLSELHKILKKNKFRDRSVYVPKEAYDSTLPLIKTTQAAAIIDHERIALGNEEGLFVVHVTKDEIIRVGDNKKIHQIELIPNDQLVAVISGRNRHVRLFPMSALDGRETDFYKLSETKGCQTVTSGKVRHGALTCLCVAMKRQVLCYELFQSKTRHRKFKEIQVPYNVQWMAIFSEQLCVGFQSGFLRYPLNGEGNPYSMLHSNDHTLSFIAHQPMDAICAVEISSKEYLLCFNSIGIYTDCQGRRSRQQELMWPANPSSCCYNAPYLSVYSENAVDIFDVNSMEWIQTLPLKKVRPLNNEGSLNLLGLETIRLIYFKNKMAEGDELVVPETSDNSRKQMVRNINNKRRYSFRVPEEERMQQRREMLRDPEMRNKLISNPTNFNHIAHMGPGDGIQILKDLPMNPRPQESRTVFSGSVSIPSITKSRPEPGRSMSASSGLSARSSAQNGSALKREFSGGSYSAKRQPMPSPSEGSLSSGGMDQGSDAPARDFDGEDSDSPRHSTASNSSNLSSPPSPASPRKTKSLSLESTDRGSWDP
Sequence of Mast/stem cell growth factor receptor Kit (Homo sapiens) (P10721 whole entry): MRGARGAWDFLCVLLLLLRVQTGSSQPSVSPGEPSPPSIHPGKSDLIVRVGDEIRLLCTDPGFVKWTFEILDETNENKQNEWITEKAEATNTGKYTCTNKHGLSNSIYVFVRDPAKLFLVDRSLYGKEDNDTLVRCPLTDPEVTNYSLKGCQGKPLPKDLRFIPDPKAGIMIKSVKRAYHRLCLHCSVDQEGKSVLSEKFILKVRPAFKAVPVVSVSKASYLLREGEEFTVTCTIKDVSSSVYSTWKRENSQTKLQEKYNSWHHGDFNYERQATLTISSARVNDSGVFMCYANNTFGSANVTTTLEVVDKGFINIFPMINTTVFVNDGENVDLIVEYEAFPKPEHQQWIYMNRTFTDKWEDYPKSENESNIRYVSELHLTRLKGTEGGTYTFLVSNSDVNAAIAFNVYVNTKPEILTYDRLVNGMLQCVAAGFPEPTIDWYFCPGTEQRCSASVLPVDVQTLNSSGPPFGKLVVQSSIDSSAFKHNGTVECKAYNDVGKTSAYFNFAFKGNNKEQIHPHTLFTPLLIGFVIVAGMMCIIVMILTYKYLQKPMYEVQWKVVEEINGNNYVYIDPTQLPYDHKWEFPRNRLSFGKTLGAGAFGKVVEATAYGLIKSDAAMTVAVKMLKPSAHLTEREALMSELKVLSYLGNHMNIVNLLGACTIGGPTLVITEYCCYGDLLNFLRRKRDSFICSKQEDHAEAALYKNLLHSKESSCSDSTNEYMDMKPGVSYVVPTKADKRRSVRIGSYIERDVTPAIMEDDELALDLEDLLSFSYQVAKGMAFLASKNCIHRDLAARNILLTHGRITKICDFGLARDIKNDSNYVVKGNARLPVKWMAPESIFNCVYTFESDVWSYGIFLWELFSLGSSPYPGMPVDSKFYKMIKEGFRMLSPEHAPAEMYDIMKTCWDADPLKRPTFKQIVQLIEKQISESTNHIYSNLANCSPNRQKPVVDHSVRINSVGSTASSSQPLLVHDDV
Sequence of Mast/stem cell growth factor receptor Kit (Homo sapiens), P10721 [V559D,V654A] (P10721 whole entry V559D/V654A): as the sequence (P10721 whole entry) above, with V559D, V654A counted along it

Compound | Activity [1] [%] | Activity [2] [%] | Activity [3] [%] | Activity [4] [%] | Activity [5] [%] | Activity [6] [%] | Activity [7] [%] | Activity [8] [%] | Activity [9] [%] | Activity [10] [%]
COc1cc2nc(C)nc(N[C@H](C)c3cccc(-c4cn[nH]c4)c3)c2cc1OC | 100 | 89 | 99 | 100 | 89 | 92 | 100 | 94 | 54 | 100
COc1cc2ncnc(N[C@H](C)c3cccc4ccccc34)c2cc1OC | 100 | 91 | 62 | 88 | 91 | 100 | 93 | 100 | 98 | 85
